Test results: the NIST ThermoML archive (doi:10.1016/j.fluid.2010.03.001)

Test: xn = mol fraction of the nth substance listed
Conditions: 101 kPa, Liquid; for viscosity: Concentric cylinders viscometry; for mass density: Vibrating tube method

C=C(C)[C@H]1CC=C(C)CC1 [(R)-1-methyl-4-(1-methylethenyl)cyclohexene] + CCCCCO
Conditions | mass density [kg/m3] | viscosity [mPa·s]
293.15 K, x2 = 0 | 841.5 | 0.902
293.15 K, x2 = 0.092 | 839.4 | 0.935
293.15 K, x2 = 0.1644 | 837.8 | 0.983
293.15 K, x2 = 0.2748 | 835.4 | 1.079
293.15 K, x2 = 0.3592 | 833.5 | 1.182
293.15 K, x2 = 0.4565 | 831.2 | 1.34
293.15 K, x2 = 0.5542 | 828.8 | 1.564
293.15 K, x2 = 0.6068 | 827.4 | 1.717
293.15 K, x2 = 0.647 | 826.4 | 1.851
293.15 K, x2 = 0.7365 | 823.8 | 2.213
293.15 K, x2 = 0.8234 | 821.1 | 2.66
293.15 K, x2 = 0.9105 | 818.1 | 3.26
303.15 K, x2 = 0 | 833.6 | 0.793
303.15 K, x2 = 0.092 | 831.4 | 0.814
303.15 K, x2 = 0.1644 | 829.8 | 0.85
303.15 K, x2 = 0.2748 | 827.4 | 0.923
303.15 K, x2 = 0.3592 | 825.4 | 1
303.15 K, x2 = 0.4565 | 823.2 | 1.115
303.15 K, x2 = 0.5542 | 820.8 | 1.275
303.15 K, x2 = 0.6068 | 819.5 | 1.384
303.15 K, x2 = 0.647 | 818.4 | 1.477
303.15 K, x2 = 0.7365 | 816 | 1.73
303.15 K, x2 = 0.8234 | 813.4 | 2.055
303.15 K, x2 = 0.9105 | 810.5 | 2.473
313.15 K, x2 = 0 | 825.8 | 0.702
313.15 K, x2 = 0.092 | 823.4 | 0.716
313.15 K, x2 = 0.1644 | 821.8 | 0.743
313.15 K, x2 = 0.2748 | 819.4 | 0.799
313.15 K, x2 = 0.3592 | 817.4 | 0.854
313.15 K, x2 = 0.4565 | 815.2 | 0.942
313.15 K, x2 = 0.5542 | 812.9 | 1.057
313.15 K, x2 = 0.6068 | 811.6 | 1.137
313.15 K, x2 = 0.647 | 810.6 | 1.201
313.15 K, x2 = 0.7365 | 808.2 | 1.386
313.15 K, x2 = 0.8234 | 805.8 | 1.617
313.15 K, x2 = 0.9105 | 803 | 1.915
323.15 K, x2 = 0 | 817.9 | 0.628
323.15 K, x2 = 0.092 | 815.4 | 0.635
323.15 K, x2 = 0.1644 | 813.7 | 0.655
323.15 K, x2 = 0.2748 | 811.3 | 0.699
323.15 K, x2 = 0.3592 | 809.3 | 0.737
323.15 K, x2 = 0.4565 | 807.1 | 0.805
323.15 K, x2 = 0.5542 | 804.8 | 0.891
323.15 K, x2 = 0.6068 | 803.5 | 0.949
323.15 K, x2 = 0.647 | 802.5 | 0.995
323.15 K, x2 = 0.7365 | 800.2 | 1.129
323.15 K, x2 = 0.8234 | 797.9 | 1.298
323.15 K, x2 = 0.9105 | 795.3 | 1.51
333.15 K, x2 = 0 | 809.9 | 0.566
333.15 K, x2 = 0.092 | 807.3 | 0.568
333.15 K, x2 = 0.1644 | 805.5 | 0.582
333.15 K, x2 = 0.2748 | 803 | 0.616
333.15 K, x2 = 0.3592 | 801 | 0.644
333.15 K, x2 = 0.4565 | 798.8 | 0.696
333.15 K, x2 = 0.5542 | 796.5 | 0.761
333.15 K, x2 = 0.6068 | 795.2 | 0.803
333.15 K, x2 = 0.647 | 794.2 | 0.837
333.15 K, x2 = 0.7365 | 792.2 | 0.937
333.15 K, x2 = 0.8234 | 789.8 | 1.06
333.15 K, x2 = 0.9105 | 787.3 | 1.219
343.15 K, x2 = 0 | 801.9 | 0.5
343.15 K, x2 = 0.092 | 799.2 | 0.511
343.15 K, x2 = 0.1644 | 797.2 | 0.52
343.15 K, x2 = 0.2748 | 794.6 | 0.546
343.15 K, x2 = 0.3592 | 792.6 | 0.567
343.15 K, x2 = 0.4565 | 790.4 | 0.608
343.15 K, x2 = 0.5542 | 788.2 | 0.657
343.15 K, x2 = 0.6068 | 787 | 0.688
343.15 K, x2 = 0.647 | 786 | 0.713
343.15 K, x2 = 0.7365 | 783.7 | 0.786
343.15 K, x2 = 0.8234 | 781.5 | 0.878
343.15 K, x2 = 0.9105 | 779.1 | 0.996
353.15 K, x2 = 0 | 793.6 | 0.452
353.15 K, x2 = 0.092 | 790.8 | 0.462
353.15 K, x2 = 0.1644 | 788.9 | 0.468
353.15 K, x2 = 0.2748 | 786.2 | 0.487
353.15 K, x2 = 0.3592 | 784.2 | 0.502
353.15 K, x2 = 0.4565 | 781.9 | 0.534
353.15 K, x2 = 0.5542 | 779.5 | 0.571
353.15 K, x2 = 0.6068 | 778.4 | 0.594
353.15 K, x2 = 0.647 | 777.4 | 0.615
353.15 K, x2 = 0.7365 | 775.2 | 0.669
353.15 K, x2 = 0.8234 | 773.1 | 0.737
353.15 K, x2 = 0.9105 | 770.6 | 0.827
363.15 K, x2 = 0 | 785.4 | 0.413
363.15 K, x2 = 0.092 | 782.5 | 0.421
363.15 K, x2 = 0.1644 | 780.4 | 0.424
363.15 K, x2 = 0.2748 | 777.7 | 0.438
363.15 K, x2 = 0.3592 | 775.6 | 0.448
363.15 K, x2 = 0.4565 | 773.2 | 0.473
363.15 K, x2 = 0.5542 | 770.9 | 0.502
363.15 K, x2 = 0.6068 | 769.6 | 0.519
363.15 K, x2 = 0.647 | 768.6 | 0.535
363.15 K, x2 = 0.7365 | 766.5 | 0.576
363.15 K, x2 = 0.8234 | 764.4 | 0.627
363.15 K, x2 = 0.9105 | 762 | 0.691
373.15 K, x2 = 0 | 777.1 | 0.382
373.15 K, x2 = 0.092 | 774.3 | 0.385
373.15 K, x2 = 0.1644 | 771.9 | 0.386
373.15 K, x2 = 0.2748 | 769 | 0.395
373.15 K, x2 = 0.3592 | 766.9 | 0.402
373.15 K, x2 = 0.4565 | 764.4 | 0.421
373.15 K, x2 = 0.5542 | 762 | 0.443
373.15 K, x2 = 0.6068 | 760.7 | 0.456
373.15 K, x2 = 0.647 | 759.7 | 0.469
373.15 K, x2 = 0.7365 | 757.7 | 0.499
373.15 K, x2 = 0.8234 | 755.7 | 0.538
373.15 K, x2 = 0.9105 | 753.1 | 0.584
